pEC50: −log10 of the molar value.
How the values were obtained:
[1] = system: TC32 Ewing sarcoma cells, expressing EWS-FLI1; assay: Growth inhibition assay, TC32 cells; format: cell-based; details: for PC:TC32 (cellular selectivity): ratio of GI50 PC3 to TC32
[2] = IV bolus pharmacokinetics in monkey; format: in vivo; details: single monkey, IV bolus 10 mg/kg, 2-compartment modeling
Protocol: Reference is made to FIGS. 6A and 6B. MTM and exemplary compound MTM(20) were each administered as an IV bolus injection (10 mg/kg) to assess the pharmacokinetics in a single monkey. Estimation of the area under the curve (AUC) was done by 2-compartment modeling. MTM20 has ˜3-fold lower clearance (CL) than mithramycin, which corresponds to an equivalent increase in exposure as measured by the AUC.

[3] = system: TC-32 cells (EWS-FLI1+) subcutaneously implanted; assay: Efficacy studies in mouse xenografts (TC-32); format: in vivo, mice; details: for Significant? survival vs. Vehicle: overall significance level 0.05
Protocol: Efficacy studies in mouse xenografts. TC-32 cells were suspended in 1:1 (v/v) media: Matrigel on ice and injected subcutaneously into the flank of female immunocompromised athymic nude NU/NU mice at a density of 1.0×10^6 cells per 100 μL. Mice with tumors of at least 75 mm^3 were randomly assigned to treatment groups, n=8-12 mice per group and n=6-10 mice per vehicle control treated group. Tumor volumes were monitored every 2-3 days and mice were euthanized once tumor volumes reached 1500 mm^3. In some experiments, tumors were allowed to grow to 20 mm in one direction prior to animals being removed from the study. Average tumor volume among the replicates were plotted, as well as survival plots, using GraphPad Prism 7.03 software. All animal studies were conducted under approved institutional animal care and use committee (IACUC) protocol.
Reference is made to FIGS. 3A-3G, which include data from an efficacy study involving exemplary compound MTM (20). TC-32 cells (EWS-FLI1+) were subcutaneously implanted in female NU/NU mice. Gray shadding starting at 0 days. indicates dosing window. FIG. 3B includes MTM20 at 21 mg/kg, FIG. 3C includes MTM20 at 15 mg/kg, FIG. 3D includes vehicle (control), FIG. 3E includes MTM (control) at 1 mg/kg, and FIG. 3F includes MTM (contro) at 0.65 mg/kg. Dosing route: IV bolus; Schedule: q2d×8.
Reference is made to FIGS. 4A and 4B, and Table 2, which include data from an efficacy/survival study involving exemplary compound MTM(20). TC-32 cells (EWS-FLI1+) were subcutaneously implanted in female NU/NU mice. FIG. 4A includes survival curves and FIG. 4B includes median survival plots of mice (n=6-7/group).
Further Efficacy Studies. Additional efficacy studies are ongoing with MTM20 at a daily schedule (total of 5 doses).
In comparison, nine of 10 tumor volumes, in the control group have increased by 50% or more and one increased approximately 15% above baseline.
In comparison all tumors in the control group grow by 30% or more relative to baseline.

[4] = Maximum tolerated dose, daily×5 schedule; format: in vivo, mice
[5] = system: PC3 Prostate Cancer Cells; assay: Growth inhibition assay, PC3 cells; format: cell-based; details: Table 1D
Protocol: (§1) Growth inhibition assay to assess cytotoxicity in ETS vs non-ETS expressing cells. Cells were seeded in clear 96-well plates (VWR, Radnor, PA). Seeding densities were optimized for each cell line to support 5 days of linear growth. Following a 24 hours attachment period, cells in duplicate wells were treated with half-log increments of respective compounds (0 nM and 0.3 nM-10 μM). Working stocks were prepared from an initial 10 mM drug stock diluted in either 100% ethanol or dimethyl sulfoxide (DMSO). All wells contained a final concentration of 0.1% (v/v) respective organic solvent. Immediately following treatment, cell viability was measured for vehicle control (Day 0) wells. Cell viability was measured in the remaining wells after 72 hours of incubation with compound or vehicle control (Day 3).
(§2) Percent viability, relative to the initial cell seeding concentration, was calculated by ((TreatmentDay3−Vehicle ControlDay0)/(Vehicle ControlDay3−Vehicle ControlDay0))×100. Percent cell viability was plotted as a function of compound concentration (Log [M]) and the data were fit using a 3-parameter non-linear model with fixed Hill slope constant and 4-parameter non-linear model with variable Hill slope constant. The model with the best curve fit was used to estimate the GI50 in GraphPad Prism 7.0 software (GraphPad Software, La Jolla, CA). The 3-parameter equation used was Y=Bottom+(Top−Bottom)/(1+10[…]((X−Log[IC50]))). The 4-parameter equation used was Y=Bottom+(Top−Bottom)/(1+10[…]((Log[IC50]−X)*Hillslope)). Top and Bottom are plateaus in the units of the Y-axis (response). IC50 is the response (Y-axis) halfway between Top and Bottom plateaus.
(§3) All compounds were tested at least once in multi-well replicates and each experiment included one a control compound (i.e., MTM) to ensure the stable response of the cell lines. The selectivity index was estimated by determining the ratio of GI50 estimates between ETS fusion negative and ETS fusion positive cell lines.

[6] = system: G-401 (ATTC Cat. No., CRL-1441); Rhabdoid tumor of the kidney; assay: Growth inhibition assay, G-401 cells; format: cell-based; details: Table 1D
Protocol: as §1, with “3). For viability measurements, 0.1 mM resazurin (Sigma, St. Louis, MO) was added to wells and following 3 hours of incubation at 37° C., fluorescence readings ([…]) were recorded using a SpectraMax M5 plate reader (Molecular Devices, Sunnyvale, CA).” for “3).”
as §2
as §3, with “GI50 values were determined by pooling all available experiments and reported with 95% confidence interval, calculated from GraphPad Prism 7.0 software curve fit. All” for “All”

[7] = system: A-204 (ATTC Cat. No., HTB-82); Rhabdomyosarcoma (embryonal); assay: Growth inhibition assay, A-204 cells; format: cell-based; details: Table 1D
Protocol: as §1, with “3). For viability measurements, 0.1 mM resazurin (Sigma, St. Louis, MO) was added to wells and following 3 hours of incubation at 37° C., fluorescence readings ([…]) were recorded using a SpectraMax M5 plate reader (Molecular Devices, Sunnyvale, CA).” for “3).”
as §2
as §3, with “GI50 values were determined by pooling all available experiments and reported with 95% confidence interval, calculated from GraphPad Prism 7.0 software curve fit. All” for “All”

[8] = system: RH30 muscle rhabdomyosarcoma; assay: Growth inhibition assay, RH30 cells; format: cell-based; details: Table 1D
Protocol: as §1, with “3). For viability measurements, 0.1 mM resazurin (Sigma, St. Louis, MO) was added to wells and following 3 hours of incubation at 37° C., fluorescence readings ([…]) were recorded using a SpectraMax M5 plate reader (Molecular Devices, Sunnyvale, CA).” for “3).”
as §2
as §3, with “GI50 values were determined by pooling all available experiments and reported with 95% confidence interval, calculated from GraphPad Prism 7.0 software curve fit. All” for “All”

[9] = system: U-2 OS bone osteosarcoma; assay: Growth inhibition assay, U-2 OS cells; format: cell-based; details: Table 1D
Protocol: as §1, with “3). For viability measurements, 0.1 mM resazurin (Sigma, St. Louis, MO) was added to wells and following 3 hours of incubation at 37° C., fluorescence readings ([…]) were recorded using a SpectraMax M5 plate reader (Molecular Devices, Sunnyvale, CA).” for “3).”
as §2
as §3, with “GI50 values were determined by pooling all available experiments and reported with 95% confidence interval, calculated from GraphPad Prism 7.0 software curve fit. All” for “All”

[10] = Hematology profile in monkeys; details: IV bolus 15 mg/kg
Protocol: Reference is made to FIGS. 7A-7F, which include include data for a hematology profile in monkeys. MTM and MTM20 were dosed as an IV bolus injection (10 mg/kg and 15 mg/kg) in two monkeys each to assess toxicity. […] Gray areas are reference values.

[11] = target: T1, EWS-FLI1 (Homo sapiens, UniProt Q01543+Q01844); details: Grohar et al. 2011; cited from earlier work
T1 sequence (Q01543 276-373 limits assumed): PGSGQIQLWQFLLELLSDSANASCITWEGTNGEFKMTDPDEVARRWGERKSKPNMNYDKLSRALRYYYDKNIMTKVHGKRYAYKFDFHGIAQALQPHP

With `COC(=O)C(Cc1c[nH]c2ccccc12)NC(=O)CON=C(C(O)C(C)O)C(OC)C1Cc2cc3cc(OC4CC(OC5CC(O)C(O)C(C)O5)C(O)C(C)O4)c(C)c(O)c3c(O)c2C(=O)C1OC1CC(OC2CC(OC3CC(C)(O)C(O)C(C)O3)C(O)C(C)O2)C(O)C(C)O1` (centres unmarked) [MTM (20)] the “PC:TC32 (cellular selectivity)” value [1] was 24.5, the “lower clearance (CL) than mithramycin” value [2] was about 3 fold and the “reduction in tumor volume” value ([3]; Experiment 1: 14.7 mg/kg (⅔ of MTD), daily schedule 5 doses, 2 days after end of treatment, 7 animals) was “greater than 50%”. For the same molecule, the “tumor volumes decreased, of the original tumor volume” value ([3]; Experiment 2: 24 mg/kg (full MTD) daily×5, following the 4th dose) was 10-70%, the “Significant? survival” value ([3]; MTM20 - 2/3MTD vs. MTM - 2/3MT) was “No” and the “Significant? survival” value ([3]; MTM20 - 2/3MTD vs. MTM - MTD) was “No”. The “Significant? survival” value ([3]; MTM20 - MTD vs. MTM20 - 2/3MTD) was “No”, the “Significant? survival” value ([3]; MTM20 - MTD vs. MTM - 2/3MTD) was “No” and the “Significant? survival” value ([3]; MTM20 - MTD vs. MTM - MTD) was “No”. For the same molecule, the “Significant? survival vs. Vehicle” value ([3]; at 2/3MTD) was “Yes”, the “Significant? survival vs. Vehicle” value ([3]; at MTD) was “Yes” and the “initial response with new dosing schedules” value ([3]; daily schedule (5 doses) compared to q2Dx8) was “significantly improved”. The “predicted efficacy of standard clinical dosing regimen” value ([3]; daily×5×2 weeks (qDx5×2w)) was “notably efficacious and potentially curative” and the “full MTD of the daily×5 schedule” value [4] was 24 mg/kg.
With `CNC(=O)[C@H](Cc1c[nH]c2ccccc12)NC(=O)CO/N=C(\[C@@H](O)[C@@H](C)O)[C@@H](OC)[C@@H]1Cc2cc3cc(O[C@H]4C[C@@H](O[C@H]5C[C@@H](O)[C@H](O)C(C)O5)[C@H](O)C(C)O4)c(C)c(O)c3c(O)c2C(=O)[C@H]1O[C@H]1C[C@@H](O[C@H]2C[C@@H](O[C@H]3C[C@](C)(O)[C@H](O)C(C)O3)[C@H](O)C(C)O2)[C@H](O)C(C)O1` (some centres unmarked) [MTM (40)] the pEC50 ([1]; Table 1D, read-out: TC-32 Mean EC50) was 6.38, the “PC:TC32 (cellular selectivity)” value [1] was 11.8 and the pEC50 [5] was 5.54. The pEC50 [6] was 7.40, the pEC50 [7] was 6.59 and the pEC50 [8] was 5.92. The pEC50 [9] was under 5.00.
In the case of `CO[C@H](C(=O)[C@@H](O)[C@@H](C)O)[C@@H]1Cc2cc3cc(O[C@H]4C[C@@H](O[C@H]5C[C@@H](O)[C@H](O)[C@@H](C)O5)[C@H](O)[C@@H](C)O4)c(C)c(O)c3c(O)c2C(=O)[C@H]1O[C@H]1C[C@@H](O[C@H]2C[C@@H](O[C@H]3C[C@](C)(O)[C@H](O)[C@@H](C)O3)[C@@H](O)[C@@H](C)O2)[C@H](O)[C@@H](C)O1` [MTM, Mithramycin], the platelets counts [10] was “significant reduction in platelets counts”, the “Significant? survival” value ([3]; MTM - MTD vs. MTM - 2/3MTD) was “No” and the “Significant? survival vs. Vehicle” value ([3]; at 2/3MTD) was “No”. The “Significant? survival vs. Vehicle” value ([3]; at MTD) was “No” and the “potency as inhibitor of EWS-FLI1 in Ewing sarcoma cells” value [11] was “low-nM”.

From US12486300B2, “Mithramycin oxime derivatives having increased selectivity and anti-cancer activity” (University of Kentucky Research Foundation, priority 2018, dated 2025)
